Km and Ki data for eight compounds are collected here from ChEMBL document CHEMBL1132790, “Synthesis and biological activity of a bivalent nucleotide inhibitor of ribonucleotide reductase” (Bioorg Med Chem Lett, 2000).

One assay in a line: (§1) Compound was tested for ribonucleotide reductase (RR) activity by inhibition of dGTP-activated ADP reduction.
On to `Nc1ncnc2c1ncn2[C@@H]1O[C@H](COP(=O)(O)OP(=O)(O)O)[C@@H](O)[C@H]1O`, for which the Km stood at 34 µM.

A further assay in a line: as §1.
Turning to `Nc1nc(O)c2nc(Br)n(C3CC(O)C(COP(=O)(O)OP(=O)(O)OP(=O)(O)O)O3)c2n1` (stereo not drawn), the Ki was 56 µM.

`C=CS(=O)(=O)CCCCCCS(=O)(=O)CCSc1nc2c(N)ncnc2n1C1O[C@@H](COP(=O)(O)OP(=O)(O)O)[C@H](O)[C@@H]1O` (stereo partly drawn) showed a Ki of 22 µM.

`C=CS(=O)(=O)CCCCCCS(=O)(=O)CCSc1nc2c(O)nc(N)nc2n1C1C[C@@H](O)[C@H](COP(=O)(O)OP(=O)(O)OP(=O)(O)O)O1` (stereo partly drawn): the affinity corresponds to a Ki of 9 µM.

As for `Nc1ncnc2c1nc(S)n2C1O[C@@H](COP(=O)(O)OP(=O)(O)O)[C@H](O)[C@@H]1O` (stereo partly drawn), the Ki was determined as 158 µM. Against the preceding compound, the Ki is about 18-fold higher.

In turn, `Nc1ncnc2c1nc(SCCS(=O)(=O)CCCCCCS(=O)(=O)CCSc1nc3c(N)ncnc3n1C1O[C@H](COP(=O)(O)OP(=O)(O)O)[C@@H](O)[C@H]1O)n2C1O[C@H](COP(=O)(O)OP(=O)(O)O)[C@H](O)[C@@H]1O` (stereo partly drawn) yielded a Ki of 19 µM.

Take `Nc1ncnc2c1nc(Br)n2[C@@H]1O[C@H](COP(=O)(O)OP(=O)(O)O)[C@@H](O)[C@H]1O`: the affinity corresponds to a Ki of 77 µM.

`Nc1nc(O)c2nc(S)n(C3CC(O)C(COP(=O)(O)OP(=O)(O)OP(=O)(O)O)O3)c2n1` (stereo not drawn): the Ki was found to be 13 µM.

One may read the Km as the concentration of substrate that gives half-maximal velocity. The Ki is a measure of affinity in units of concentration, obtained from inhibition or displacement. Higher therefore signals lower affinity.
